# Laboratory results from ChEMBL document CHEMBL1201862, “PubChem BioAssay data set” (2004).
#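 96-well plates; 48 h exposure; 5 concentrations. Endpoints by linear interpolation between flanking doses. Not reached: highest tested concentration assigned. GI50 marks 50% less growth.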 The source made the active and inactive calls. Rule as the data show it: active = GI50 up to about 1.1 µM and inactive = higher.
# What was measured:
# Assay in all cases: growth of human tumour cells (NCI), 48 h
# 786-0 = test system: 786-0
# A498 = test system: A498
# A549 = test system: A549
# ACHN = test system: ACHN
# BT-549 = test system: BT-549
# CAKI-1 = test system: CAKI-1
# CCRF-CEM = test system: CCRF-CEM
# COLO 205 = test system: COLO 205
# DLD-1 = test system: DLD-1
# DMS-114 = test system: DMS-114
# DMS-273 = test system: DMS-273
# DU-145 = test system: DU-145
# EKVX = test system: EKVX
# HCC 2998 = test system: HCC 2998
# HCT-116 = test system: HCT-116
# HCT-15 = test system: HCT-15
# HL-60 = test system: HL-60
# HOP-18 = test system: HOP-18
# HOP-62 = test system: HOP-62
# HOP-92 = test system: HOP-92
# HT-29 = test system: HT-29
# Hs-578T = test system: Hs-578T
# IGROV-1 = test system: IGROV-1
# K562 = test system: K562
# KM-20L2 = test system: KM-20L2
# KM12 = test system: KM12
# LOX IMVI = test system: LOX IMVI
# LXFL 529 = test system: LXFL 529
# M14 = test system: M14
# M19-MEL = test system: M19-MEL
# MCF7 = test system: MCF7
# MDA-MB-231 = test system: MDA-MB-231
# MDA-MB-435 = test system: MDA-MB-435
# MDA-N = test system: MDA-N
# MOLT-4 = test system: MOLT-4
# Malme-3M = test system: Malme-3M
# NCI-H226 = test system: NCI-H226
# NCI-H23 = test system: NCI-H23
# NCI-H460 = test system: NCI-H460
# NCI-H522 = test system: NCI-H522
# NCI/ADR-RES = test system: NCI/ADR-RES
# OVCAR-3 = test system: OVCAR-3
# OVCAR-4 = test system: OVCAR-4
# OVCAR-5 = test system: OVCAR-5
# OVCAR-8 = test system: OVCAR-8
# PC-3 = test system: PC-3
# RPMI-8226 = test system: RPMI-8226
# RXF 393 = test system: RXF 393
# SF-268 = test system: SF-268
# SF-295 = test system: SF-295
# SF-539 = test system: SF-539
# SK-MEL-28 = test system: SK-MEL-28
# SK-MEL-2 = test system: SK-MEL-2
# SK-MEL-5 = test system: SK-MEL-5
# SK-OV-3 = test system: SK-OV-3
# SN12C = test system: SN12C
# SNB-19 = test system: SNB-19
# SNB-75 = test system: SNB-75
# SNB-78 = test system: SNB-78
# SR = test system: SR
# SW-620 = test system: SW-620
# T47D = test system: T47D
# TK-10 = test system: TK-10
# U-251 = test system: U-251
# UACC-257 = test system: UACC-257
# UACC-62 = test system: UACC-62
# UO-31 = test system: UO-31
# XF498 = test system: XF498
smiles,measurement,setting,value
CC[N+]1(C)CCC(O)(/C=C/c2ccccc2)C(C(=O)/C=C/c2ccccc2)C1 (configuration not stated),GI50,786-0,4.02 µM (inactive)
same,GI50,A498,21.1 µM (inactive)
same,GI50,A549,20.3 µM (inactive)
same,GI50,ACHN,11.1 µM (inactive)
same,GI50,BT-549,15.7 µM (inactive)
same,GI50,CAKI-1,1.85 µM (inactive)
same,GI50,CCRF-CEM,1.94 µM (inactive)
same,GI50,COLO 205,3.44 µM (inactive)
same,GI50,DLD-1,4.98 µM (inactive)
same,GI50,DMS-114,6.62 µM (inactive)
same,GI50,DMS-273,4.72 µM (inactive)
same,GI50,DU-145,19.1 µM (inactive)
same,GI50,EKVX,22.5 µM (inactive)
same,GI50,HCC 2998,16.7 µM (inactive)
same,GI50,HCT-116,6 µM (inactive)
same,GI50,HCT-15,4.54 µM
same,GI50,HL-60,2.31 µM (inactive)
same,GI50,HOP-18,16.6 µM (inactive)
same,GI50,HOP-62,19.6 µM (inactive)
same,GI50,HOP-92,9.46 µM (inactive)
same,GI50,HT-29,7.59 µM (inactive)
same,GI50,Hs-578T,28.4 µM (inactive)
same,GI50,IGROV-1,18.7 µM (inactive)
same,GI50,K562,2.7 µM (inactive)
same,GI50,KM-20L2,18.3 µM (inactive)
same,GI50,KM12,3.71 µM (inactive)
same,GI50,LOX IMVI,2.79 µM (inactive)
same,GI50,LXFL 529,2.79 µM (inactive)
same,GI50,M14,11.3 µM (inactive)
same,GI50,M19-MEL,9.98 µM (inactive)
same,GI50,MCF7,3.05 µM (inactive)
same,GI50,MDA-MB-231,10.8 µM (inactive)
same,GI50,MDA-MB-435,12.2 µM (inactive)
same,GI50,MDA-N,6.11 µM (inactive)
same,GI50,MOLT-4,2.13 µM (inactive)
same,GI50,Malme-3M,15 µM (inactive)
same,GI50,NCI-H226,14.7 µM (inactive)
same,GI50,NCI-H23,15.2 µM (inactive)
same,GI50,NCI-H460,15 µM (inactive)
same,GI50,NCI-H522,1.99 µM (inactive)
same,GI50,NCI/ADR-RES,30.6 µM (inactive)
same,GI50,OVCAR-3,9.04 µM (inactive)
same,GI50,OVCAR-4,13.7 µM (inactive)
same,GI50,OVCAR-5,18.1 µM (inactive)
same,GI50,OVCAR-8,9.1 µM (inactive)
same,GI50,PC-3,14.6 µM (inactive)
same,GI50,RPMI-8226,0.706 µM (active)
same,GI50,RXF 393,7.62 µM (inactive)
same,GI50,SF-268,15.6 µM (inactive)
same,GI50,SF-295,16.7 µM (inactive)
same,GI50,SF-539,7.43 µM (inactive)
same,GI50,SK-MEL-28,7.4 µM (inactive)
same,GI50,SK-MEL-2,19.8 µM (inactive)
same,GI50,SK-MEL-5,16.6 µM (inactive)
same,GI50,SK-OV-3,18.2 µM (inactive)
same,GI50,SN12C,7.23 µM (inactive)
same,GI50,SNB-19,15.3 µM (inactive)
same,GI50,SNB-75,14.7 µM (inactive)
same,GI50,SNB-78,24 µM (inactive)
same,GI50,SR,2.34 µM (inactive)
same,GI50,SW-620,2.45 µM (inactive)
same,GI50,T47D,15.3 µM (inactive)
same,GI50,TK-10,7.28 µM (inactive)
same,GI50,U-251,8 µM (inactive)
same,GI50,UACC-257,10.2 µM (inactive)
same,GI50,UACC-62,16.9 µM (inactive)
same,GI50,UO-31,15.6 µM (inactive)
same,GI50,XF498,8.43 µM (inactive)
CCCC1=C(CC)C(C(=O)Nc2c(C)cccc2C)=NC(S)N1 (configuration not stated),GI50,786-0,> 100 µM (inactive)
same,GI50,A498,> 100 µM (inactive)
same,GI50,A549,> 100 µM (inactive)
same,GI50,ACHN,> 100 µM (inactive)
same,GI50,CAKI-1,> 100 µM (inactive)
same,GI50,CCRF-CEM,> 100 µM (inactive)
same,GI50,COLO 205,> 100 µM (inactive)
same,GI50,DLD-1,> 100 µM (inactive)
same,GI50,DMS-114,> 100 µM (inactive)
same,GI50,DMS-273,> 100 µM (inactive)
same,GI50,EKVX,> 100 µM (inactive)
same,GI50,HCT-116,> 100 µM (inactive)
same,GI50,HCT-15,> 100 µM
same,GI50,HL-60,> 100 µM (inactive)
same,GI50,HOP-18,> 100 µM (inactive)
same,GI50,HOP-62,> 100 µM (inactive)
same,GI50,HOP-92,> 100 µM (inactive)
same,GI50,HT-29,> 100 µM (inactive)
same,GI50,IGROV-1,> 100 µM (inactive)
same,GI50,K562,> 100 µM (inactive)
same,GI50,KM-20L2,> 100 µM (inactive)
same,GI50,KM12,> 100 µM (inactive)
same,GI50,LXFL 529,> 100 µM (inactive)
same,GI50,M14,> 100 µM (inactive)
same,GI50,M19-MEL,> 100 µM (inactive)
same,GI50,MOLT-4,> 100 µM (inactive)
same,GI50,Malme-3M,> 100 µM (inactive)
same,GI50,NCI-H226,> 100 µM (inactive)
same,GI50,NCI-H23,> 100 µM (inactive)
same,GI50,NCI-H460,> 100 µM (inactive)
same,GI50,NCI-H522,> 100 µM (inactive)
same,GI50,OVCAR-3,> 100 µM (inactive)
same,GI50,OVCAR-4,> 100 µM (inactive)
same,GI50,OVCAR-5,> 100 µM (inactive)
same,GI50,OVCAR-8,> 100 µM (inactive)
same,GI50,RPMI-8226,> 100 µM (inactive)
same,GI50,SF-268,> 100 µM (inactive)
same,GI50,SF-295,> 100 µM (inactive)
same,GI50,SF-539,> 100 µM (inactive)
same,GI50,SK-MEL-28,> 100 µM (inactive)
same,GI50,SK-MEL-2,> 100 µM (inactive)
same,GI50,SK-MEL-5,> 100 µM (inactive)
same,GI50,SN12C,> 100 µM (inactive)
same,GI50,SNB-19,> 100 µM (inactive)
same,GI50,SNB-75,59 µM (inactive)
same,GI50,SNB-78,> 100 µM (inactive)
same,GI50,SR,> 100 µM (inactive)
same,GI50,SW-620,> 100 µM (inactive)
same,GI50,TK-10,> 100 µM (inactive)
same,GI50,U-251,> 100 µM (inactive)
same,GI50,UACC-257,> 100 µM (inactive)
same,GI50,UACC-62,> 100 µM (inactive)
same,GI50,UO-31,> 100 µM (inactive)
same,GI50,XF498,> 100 µM (inactive)
